In patent publication EP2322194A2 (Reprise Biopharmaceutics, LLC, priority 2003, dated 2005):
Values joined by “and” are separate entries in the source; they are usually repeats but may differ in a detail not shown here. Identical values can stand only once. Like-named read-outs stand apart in the source and are kept apart here.

Test system: over-hydrated, healthy, non-smoking male and female volunteers
Format: in vivo, human
Conditions: for Mean peak urine osmolality: at 2 hours; for Mean nadir urine output: end of 2 hour infusion; for Urine Output / Urine Osmolality: individual subjects
Experimental: Briefly, an open-label, crossover study with 8 healthy, over-hydrated, non-smoking male and female volunteers, age 18-40. The subjects were dosed initially with 0.5 ng/kg dose, then with the 1.0 ng/kg dose and finally the 2.0 ng/kg dose. Pharmacodynamic and pharmacokinetic parameters were evaluated at each dose level. A washout period of two days (48 hours) was observed between dosing. Eight subjects evaluated in this study, 5 males, and 3 females. […] Each subject remained in the clinic from one day prior to first dosing to one day after last dosing for a total of 7 days. […] At this point over-hydration was discontinued. […] Urine-specific gravity was also measured. […] This same procedure was followed for the 1.0 ng/kg and 2.0 ng/kg infusions. […] Criteria for evaluation in the study included urine output over time, urine osmolality over time, urine-specific gravity over time, and […] osmolality and sodium over time. Statistical analysis on the above criteria was performed. The statistical analysis is descriptive and all statistical hypothesis testing was done for exploratory purposes. […] The second and third estimation used 200 mOsm/kg and 400 mOsm/kg as cut off levels for 'onset' and 'end' of action, respectively. […] The overall duration of action was estimated for each dose group using the nonparametric Kaplan-Meier method. […] Furthermore, the duration of action was presented for each treatment group using the mean, SD, median, minimum and maximum values. The dose-response relationship between duration of action and dose was investigated using an appropriate linear or nonlinear model.

[1] = 0.5 ng/kg, time 0 min (baseline)
[2] = 0.5 ng/kg, time -20 min (baseline)
[3] = 1.0 ng/kg, time 0 min (baseline)
[4] = 1.0 ng/kg, time -20 min (baseline)
[5] = 2.0 ng/kg, time 0 min (baseline)
[6] = 2.0 ng/kg, time -20 min (baseline)

## 1-desamino-8-D-arginine vasopressin [desmopressin]
0.5 ng/kg dose
  duration of antidiuretic effect: approximately 180 minutes
  Mean peak urine osmolality: 206.0 mOsm/kg
  Baseline mean urine osmolality: 55.8 mOsm/kg
  Baseline mean urine output: 18.6 mL/min
  Mean nadir urine output: 7.1 mL/min
[1]
  Urine Osmolality, Mean: 57.6 mOsm/kg
  Urine Output, Mean: 18.4 mL/min
0.5 ng/kg, time 20 min
  Urine Osmolality, Mean: 73.1 mOsm/kg
  Urine Output: 16.7 mL/min (2×) and 16.4 mL/min and 11.8 mL/min
0.5 ng/kg, time 40 min
  Urine Osmolality, Mean: 108.3 mOsm/kg
  Urine Output, Mean: 10.3 mL/min
0.5 ng/kg, time 60 min
  Urine Osmolality, Mean: 136.1 mOsm/kg
  Urine Output, Mean: 9.6 mL/min
0.5 ng/kg, time 80 min
  Urine Osmolality, Mean: 165.8 mOsm/kg
0.5 ng/kg, time 100 min
  Urine Osmolality, Mean: 186.3 mOsm/kg
  Urine Output, Mean: 7.7 mL/min
0.5 ng/kg, time 120 min
  Urine Osmolality, Mean: 206.0 mOsm/kg
  Urine Output, Mean: 7.1 mL/min
0.5 ng/kg, time 140 min
  Urine Osmolality, Mean: 188.3 mOsm/kg
  Urine Output, Mean: 9.6 mL/min
0.5 ng/kg, time 160 min
  Urine Osmolality, Mean: 155.8 mOsm/kg
  Urine Output, Mean: 9.7 mL/min
0.5 ng/kg, time 180 min
  Urine Osmolality, Mean: 136.8 mOsm/kg
  Urine Output, Mean: 11.1 mL/min
0.5 ng/kg, time 200 min
  Urine Osmolality, Mean: 157.8 mOsm/kg
  Urine Output, Mean: 10.4 mL/min
0.5 ng/kg, time 220 min
  Urine Osmolality, Mean: 136.5 mOsm/kg
  Urine Output, Mean: 10.4 mL/min
0.5 ng/kg, time 240 min
  Urine Osmolality, Mean: 141.7 mOsm/kg
  Urine Output: 10.5 mL/min and 11.4 mL/min and 4.2 mL/min
0.5 ng/kg, time 260 min
  Urine Osmolality, Mean: 147.5 mOsm/kg
  Urine Output, Mean: 9.7 mL/min
  Urine Osmolality: 80 mOsm/kg and 215 mOsm/kg
0.5 ng/kg, time 280 min
  Urine Osmolality, Mean: 169.0 mOsm/kg
  Urine Osmolality: 88 mOsm/kg and 250 mOsm/kg
0.5 ng/kg, time 300 min
  Urine Osmolality, Mean: 193.0 mOsm/kg
  Urine Output, Mean: 4.1 mL/min
  Urine Osmolality: 193 mOsm/kg
  Urine Output: 4.1 mL/min
0.5 ng/kg, time 320 min
  Urine Osmolality, Mean: 156.0 mOsm/kg
  Urine Output, Mean: 5.0 mL/min
  Urine Osmolality: 156 mOsm/kg
  Urine Output: 5 mL/min
0.5 ng/kg, time 340 min
  Urine Osmolality, Mean: 133.0 mOsm/kg
  Urine Output, Mean: 6.4 mL/min
  Urine Osmolality: 133 mOsm/kg
  Urine Output: 6.4 mL/min
0.5 ng/kg, time 360 min
  Urine Osmolality, Mean: 120.0 mOsm/kg
  Urine Output, Mean: 7.3 mL/min
  Urine Osmolality: 120 mOsm/kg
  Urine Output: 7.3 mL/min
[2]
  Urine Osmolality, Mean: 55.8 mOsm/kg
  Urine Output, Mean: 18.6 mL/min
1.0 ng/kg dose
  Mean peak urine osmolality: 444.7 mOsm/kg
  Baseline mean urine osmolality: 55.8 mOsm/kg
  Baseline mean urine output: 16.6 mL/min
  Mean nadir urine output: 1.3 mL/min
[3]
  Urine Osmolality, Mean: 56.5 mOsm/kg
  Urine Output, Mean: 16.7 mL/min
  Urine Output: 17.4 mL/min
1.0 ng/kg, time 20 min
  Urine Osmolality, Mean: 67.1 mOsm/kg
  Urine Output: 11.2 mL/min and 10.4 mL/min
1.0 ng/kg, time 40 min
  Urine Osmolality, Mean: 167.0 mOsm/kg
  Urine Output, Mean: 7.0 mL/min
  Urine Output: 5.7 mL/min and 7.6 mL/min
1.0 ng/kg, time 60 min
  Urine Osmolality, Mean: 259.4 mOsm/kg
  Urine Output, Mean: 3.7 mL/min
  Urine Output: 3.5 mL/min
1.0 ng/kg, time 80 min
  Urine Osmolality, Mean: 322.8 mOsm/kg
  Urine Output, Mean: 2.0 mL/min
  Urine Output: 0 mL/min
1.0 ng/kg, time 100 min
  Urine Osmolality, Mean: 375.5 mOsm/kg
  Urine Output, Mean: 2.5 mL/min
  Urine Output: 3.7 mL/min
1.0 ng/kg, time 120 min
  Urine Osmolality, Mean: 444.7 mOsm/kg
  Urine Output, Mean: 1.3 mL/min
  Urine Output: 0 mL/min
1.0 ng/kg, time 140 min
  Urine Osmolality, Mean: 412.2 mOsm/kg
  Urine Output, Mean: 1.8 mL/min
  Urine Output: 0 mL/min
1.0 ng/kg, time 160 min
  Urine Osmolality, Mean: 261.7 mOsm/kg
  Urine Output, Mean: 3.2 mL/min
1.0 ng/kg, time 180 min
  Urine Osmolality, Mean: 280.9 mOsm/kg
  Urine Output, Mean: 5.0 mL/min
  Urine Output: 7.1 mL/min
1.0 ng/kg, time 200 min
  Urine Osmolality, Mean: 216.3 mOsm/kg
  Urine Output, Mean: 6.7 mL/min
  Urine Output: 4.3 mL/min
1.0 ng/kg, time 220 min
  Urine Osmolality, Mean: 121.4 mOsm/kg
  Urine Output, Mean: 7.3 mL/min
1.0 ng/kg, time 240 min
  Urine Osmolality, Mean: 181.6' mOsm/kg
  Urine Output: 5.5 mL/min
1.0 ng/kg, time 260 min
  Urine Osmolality, Mean: 181.8 mOsm/kg
  Urine Output, Mean: 6.6 mL/min
  Urine Output: 4.7 mL/min
1.0 ng/kg, time 280 min
  Urine Osmolality, Mean: 242.5 mOsm/kg
  Urine Output, Mean: 4.7 mL/min
  Urine Output: 0 mL/min
1.0 ng/kg, time 300 min
  Urine Osmolality, Mean: 202.0 mOsm/kg
  Urine Output: 11.5 mL/min
1.0 ng/kg, time 320 min
  Urine Osmolality, Mean: 164.8 mOsm/kg
  Urine Output: 6.7 mL/min
1.0 ng/kg, time 340 min
  Urine Osmolality, Mean: 155.5 mOsm/kg
  Urine Output, Mean: 10.6 mL/min
1.0 ng/kg, time 360 min
  Urine Osmolality, Mean: 156.3 mOsm/kg
  Urine Output, Mean: 10.4 mL/min
[4]
  Urine Osmolality, Mean: 55.8 mOsm/kg
  Urine Output, Mean: 16.6 mL/min
  Urine Output: 10.2 mL/min and 16.8 mL/min
2.0 ng/kg dose
  duration of antidiuretic effect: ~360 min
  Mean peak urine osmolality: 587.2 mOsm/kg
  Baseline mean urine osmolality: 55.6 mOsm/kg
  Baseline mean urine output: 16.9 mL/min
  Mean nadir urine output: 0.7 mL/min
[5]
  Urine Osmolality, Mean: 56.0 mOsm/kg
  Urine Output, Mean: 16.5 mL/min
2.0 ng/kg, time 20 min
  Urine Osmolality, Mean: 75.6 mOsm/kg
  Urine Output, Mean: 10.5 mL/min
2.0 ng/kg, time 40 min
  Urine Osmolality, Mean: 301.4 mOsm/kg
  Urine Output, Mean: 2.3 mL/min
2.0 ng/kg, time 60 min
  Urine Osmolality, Mean: 410.0 mOsm/kg
  Urine Output, Mean: 1.3 mL/min
2.0 ng/kg, time 80 min
  Urine Osmolality, Mean: 516.0 mOsm/kg
  Urine Output, Mean: 0.7 mL/min
2.0 ng/kg, time 100 min
  Urine Osmolality, Mean: 525.6 mOsm/kg
  Urine Output, Mean: 0.7 mL/min
2.0 ng/kg, time 120 min
  Urine Osmolality, Mean: 587.2 mOsm/kg
  Urine Output, Mean: 0.7 mL/min
2.0 ng/kg, time 140 min
  Urine Osmolality, Mean: 576.7 mOsm/kg
  Urine Output, Mean: 1.0 mL/min
2.0 ng/kg, time 160 min
  Urine Osmolality, Mean: 534.7 mOsm/kg
  Urine Output, Mean: 1.2 mL/min
2.0 ng/kg, time 180 min
  Urine Osmolality, Mean: 534.3 mOsm/kg
  Urine Output, Mean: 1.2 mL/min
2.0 ng/kg, time 200 min
  Urine Osmolality, Mean: 494.5 mOsm/kg
  Urine Output, Mean: 1.1 mL/min
2.0 ng/kg, time 220 min
  Urine Osmolality, Mean: 438.7 mOsm/kg
  Urine Output, Mean: 1.3 mL/min
2.0 ng/kg, time 240 min
  Urine Osmolality, Mean: 455.1 mOsm/kg
  Urine Output, Mean: 2.2 mL/min
2.0 ng/kg, time 260 min
  Urine Osmolality, Mean: 355.3 mOsm/kg
  Urine Output, Mean: 2.4 mL/min
2.0 ng/kg, time 280 min
  Urine Osmolality, Mean: 343.2 mOsm/kg
  Urine Output, Mean: 2.5 mL/min
2.0 ng/kg, time 300 min
  Urine Osmolality, Mean: 324.4 mOsm/kg
  Urine Output, Mean: 3.2 mL/min
2.0 ng/kg, time 320 min
  Urine Osmolality, Mean: 220.9 mOsm/kg
  Urine Output, Mean: 6.6 mL/min
2.0 ng/kg, time 340 min
  Urine Osmolality, Mean: 173.0 mOsm/kg
2.0 ng/kg, time 360 min
  Urine Osmolality, Mean: 143.8 mOsm/kg
  Urine Output, Mean: 9.3 mL/min
[6]
  Urine Osmolality, Mean: 55.6 mOsm/kg
  Urine Output, Mean: 16.9 mL/min
Low doses as i.v. infusions over 2 hours, dose response fashion
  antidiuretic effect: significant antidiuretic effects
